According to ChEMBL document CHEMBL1149876, “The berkeleyamides, amides from the acid lake fungus Penicillum rubrum” (J Nat Prod, 2008):
Active and inactive are the calls of the source. The rule behind the calls is not given here.

Key:
Caspase-1 (Homo sapiens) = molecular target: T1, Caspase-1 (Homo sapiens) (UniProt P29466); test: (§1) Inhibition of caspase 1
T1 sequence (whole entry): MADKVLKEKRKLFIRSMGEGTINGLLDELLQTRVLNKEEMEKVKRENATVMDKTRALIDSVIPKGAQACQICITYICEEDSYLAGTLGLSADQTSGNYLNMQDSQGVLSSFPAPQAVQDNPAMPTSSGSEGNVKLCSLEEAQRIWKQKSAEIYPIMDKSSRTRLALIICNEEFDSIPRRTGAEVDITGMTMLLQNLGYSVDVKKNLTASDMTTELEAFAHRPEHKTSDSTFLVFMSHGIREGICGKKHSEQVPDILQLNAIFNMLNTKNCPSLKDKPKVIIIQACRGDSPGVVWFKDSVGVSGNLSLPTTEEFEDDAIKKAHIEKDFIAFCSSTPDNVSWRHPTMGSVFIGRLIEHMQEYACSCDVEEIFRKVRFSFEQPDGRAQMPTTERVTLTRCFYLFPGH

Stromelysin-1 = Stromelysin-1 (Homo sapiens, UniProt P08254); test: Inhibition of MMP3
Caspase-1 = molecular target: T2, Caspase-1 (Homo sapiens, UniProt P29466); test: as §1
T2 sequence (P29466 whole entry): T1 sequence (whole entry)

Row | Activity (Caspase-1 (Homo sapiens)) | Activity (Stromelysin-1) | IC50 (Caspase-1) [nM] | IC50 (Stromelysin-1) [nM] | Structure (SMILES)
1 | Active | Active | – | – | CC(=O)OC(c1ccccc1)c1cc(=O)c(C(=O)NC(=O)CC(C)C)cn1CCO (stereo not drawn)
2 | Active | Active | – | – | CC(=O)OC(c1ccccc1)c1cc(=O)c(C(=O)NC(=O)CC(C)C)co1 (stereo not drawn)
3 | – | – | 610 | 610 | CC(C)CC1(O)NC(=O)C2(OC(Cc3ccccc3)=CC2=O)C1O (stereo not drawn) [BERKELEYAMIDE D]
4 | – | – | 330 | 330 | CC(C)C[C@H]1C[C@H]([C@@H](O)CC(=O)Cc2ccccc2)C(=O)N1 [BERKELEYAMIDE A]
